Test system: Plasmodium falciparum
Test: GSK_TCMDC: Inhibition of Plasmodium falciparum 3D7 in whole erythrocytes, using parasite LDH activity as an index of growth.
Type: functional, organism-based
Conditions: Plasmodium falciparum, 3D7

Cc1ccc2c(N/N=C/c3ccccc3[N+](=O)[O-])cc(C)nc2c1
XC50: 416 nM

CCN(CC)CCN(Cc1ccc(-c2ccc(C(F)(F)F)cc2)cc1)C(=O)Cn1c(CCc2cccc(F)c2F)c(C)c(=O)c2ccccc21
XC50: 942 nM

CC(C)C[C@@H]1C(=O)N[C@H](C2Cc3ccccc3C2)C(=O)N1[C@@H](C(=O)O)c1ccc(F)cc1F
XC50: 836 nM

C#CCN(Cc1ccc2[nH]c(N)nc(=O)c2c1)c1ccc(C(=O)N[C@@H](CCC(=O)O)C(=O)O)cc1
XC50: 217 nM

CN(C)CCNC(=O)c1csc(Nc2ccc(Cl)c(Cl)c2)n1
XC50: 225 nM

COCCCC1C(=O)OC2CCCC21 (stereo unspecified)
XC50: 699 nM

Cc1ccc(Nc2nccc(N(C)c3ccc4c(c3)nc(NC(=O)Cc3ccc(Cl)c(Cl)c3)n4C)n2)cc1S(N)(=O)=O
XC50: 1110 nM

CCCN(CC1CC1)c1ncc(-c2cccc(CNCCC3CCCN3C)c2)cn1 (stereo unspecified)
XC50: 749 nM

Cc1cc(-c2ccc(O)c(CNC3CCCCC3)c2)cnc1N
XC50: 203 nM

CCOc1cc(N)c2nc3ccc([N+](=O)[O-])cc3cc2c1
XC50: 145 nM

CC1(C)N=C(NC(=O)c2cc([N+](=O)[O-])cc([N+](=O)[O-])c2)N=C(N)N1OCc1cccc2ccccc12
XC50: 6.84 nM

COc1ccc2c(=NN=Cc3ccccc3)cc(C)[nH]c2c1
XC50: 846 nM

COc1cc(C)nc2ccc(NC(=O)c3cc(C(F)(F)F)cc(C(F)(F)F)c3)cc12
XC50: 912 nM

CCCCCCCN1CC[C@@H](CCCc2ccnc3ccc(OCCCCN/C(N)=N/O)cc23)[C@@H](CC)C1
XC50: 952 nM

CC1(C)CCC(=Cc2ccc(Cl)cc2)CC1(O)Cn1ccnc1 (stereo unspecified)
XC50: 743 nM

Cc1cccc2nc(-c3cccc(-c4ccc(CNCc5ccccc5)cc4)c3)[nH]c12
XC50: 148 nM

N=C(N)NN=CC(=O)Nc1ccc(Cl)cc1
XC50: 814 nM

O=C1Nc2ccccc2/C1=N/NC(=S)N1CCOCC1
XC50: 910 nM

OCCN1CCN(Cc2ccc(-c3ccc(-c4nc5cc(F)ccc5[nH]4)cc3)cc2)CC1
XC50: 567 nM

COc1ccc2[nH]ccc(=NN=Cc3ccncc3)c2c1
XC50: 584 nM

CCOc1cc(C(=O)NCCN(CC)c2cccc(C)c2)ccc1-c1nc2cc(Cl)ccc2[nH]1
XC50: 809 nM

COc1cc2ncnc(Nc3ccc(Br)c(Cl)c3)c2cc1OC
XC50: 718 nM

COc1ccc2ncc(Cl)c(N3CCC(CCNCc4ccc5c(n4)NC(=O)CS5)CC3)c2c1
XC50: 961 nM

CN(C)c1ccc(CN2CCC(NC(=O)c3ccc(-c4cccc(Cl)c4)s3)CC2)cc1
XC50: 924 nM

Cc1cc(N(C)CCCN(C)C)nc(Nc2ccc(Cl)cc2)n1
XC50: 1020 nM

CCOC(=O)c1ccc(NC(=O)NCCCC2CCCN(CCCCCNC(=O)/C=C/c3ccc(Cl)c(Cl)c3)C2)cc1 (stereo unspecified)
XC50: 855 nM

C=CCOc1ccc(C2C(C(=O)OC)=C(C)NC3=C2C(=O)c2ccccc23)cc1OC (stereo unspecified)
XC50: 877 nM

CN(Cc1cccc(O)c1)C1CCN(c2cc(NC(=O)c3cccc(F)c3)ccn2)CC1
XC50: 847 nM

CC1(C)NC(N)=NC(=N)N1OCc1cccc(Cl)c1Cl
XC50: 3.2 nM

COc1ccc(NC(=O)Nc2ccc(C)c(-c3ccc(C(=O)Nc4ccncc4)cc3)c2)cc1
XC50: 572 nM

CC(C)C(NC(=O)c1c(F)cccc1F)C(=O)Nc1ccc(Cc2nc3ccccc3s2)cc1 (stereo unspecified)
XC50: 448 nM

Cc1cccc2nc(-c3cccc(-c4cccc(NC(=O)Nc5ccc(F)c(F)c5F)c4)c3)[nH]c12
XC50: 108 nM

CSc1ccc(NC(=O)Nc2cc(C)nc3ccccc23)cc1Br
XC50: 778 nM

O=C(Nc1cccc(OC2CCN(Cc3ccc(F)cc3)CC2)c1)c1ccc(C(F)(F)F)cc1
XC50: 952 nM

FC(F)(F)c1ccc(CNCC2CCN(Cc3ccc4c(c3)OCO4)CC2)cc1
XC50: 1360 nM

CCN(CC)C(=S)N/N=C1/C(=O)Nc2c(C)cccc21
XC50: 863 nM

O=C(NOCCOc1ccccc1)c1ccccc1
XC50: 317 nM

COc1ccc(Cl)cc1NC(=O)C(C)Nc1ccc(-c2ccccc2)cc1 (stereo unspecified)
XC50: 556 nM

CN(C)CCCNc1ncnc2c1[nH]c1ccc(Br)cc12
XC50: 319 nM

Cc1cc(NC(=O)NCCN2CCC(NS(=O)(=O)c3ccc(Br)cc3)C2)c2ccccc2n1 (stereo unspecified)
XC50: 602 nM

CCOc1ccc2c(c1)N(C(=O)C=Cc1ccccc1)C(C)(C)c1ssc(=S)c1-2
XC50: 1150 nM

O=C(/C=C/c1ccc(Cl)c(Cl)c1)N1CCC(CN2CCC(Cc3nc4ccccc4[nH]3)CC2)CC1
XC50: 254 nM

COc1ccc(NC(=O)c2ccc(-c3nc(-c4ccc(Cl)cc4)cs3)cc2)cc1N1CCN(C)CC1
XC50: 921 nM

O=C(/C=C/c1ccc(Cl)c(Cl)c1)NCCCCN1CCCN(C(=O)Nc2ccc(C(F)(F)F)cc2)CC1
XC50: 847 nM

CCc1ccc(CN2CCC(NC(=O)c3ccc(-c4ccc(N(C)C)cc4)s3)CC2)cc1
XC50: 1210 nM

CC(Cl)=CCc1c(C)nc2c(ccc3ccccc32)c1O
XC50: 198 nM

CCOc1cc2ncnc(Nc3ccc(OCc4ccccc4F)c(Cl)c3)c2cc1OCC
XC50: 601 nM

COc1ccc(-c2cnc3ccc(NC4CCC(O)CC4)nn23)cn1 (stereo unspecified)
XC50: 715 nM

CC(C)(CNCc1cccc(Oc2ccccc2)c1)c1nc(-c2ccnc(N)n2)c(-c2ccc(Cl)c(O)c2)[nH]1
XC50: 760 nM

CC(C)(C)c1ccc(CN2CCC(NC(=O)c3ccc(-c4ccccc4F)s3)CC2)cc1
XC50: 1200 nM

COc1ccc2c(CNCCCCCCNCc3c(OC)ccc4cc(OC)ccc34)c(OC)ccc2c1
XC50: 560 nM

CCCCCN1CCC(NC(=O)c2ccc(C(=O)Nc3ccc(C(C)C)cc3)cc2)C1 (stereo unspecified)
XC50: 954 nM

COc1cc(OC)c(OC)cc1C=NN=c1cc(C)[nH]c2ccccc12
XC50: 299 nM

OC1CCC(Nc2ccc3ncc(-c4ccc5ccccc5c4)n3n2)CC1 (stereo unspecified)
XC50: 978 nM

CCN(CCCN1CCCCC1)c1cc(C)nc(Nc2cccc(C(F)(F)F)c2C)n1
XC50: 609 nM

COc1cc2c(cc1COc1ccccc1)CCN1Cc3cc(OC)c(OC)cc3CC21 (stereo unspecified)
XC50: 150 nM

CCCCN(CCCC)Cc1cc(N(C)c2ccc([N+](=O)[O-])cn2)ccc1O
XC50: 544 nM

Cc1ccccc1C1CCN(C2CCC(NC(=O)/C=C/c3cc(F)ccc3F)CC2)CC1 (stereo unspecified)
XC50: 1040 nM

O=C(NC1CCN(CC2(c3ccccc3)CCCC2)CC1)c1n[nH]cc1Cl
XC50: 1040 nM

CCN(CC)CCCNc1cc[n+]([O-])c2cc3ccccc3cc12
XC50: 871 nM

COc1ccc2c(c1)OC(C)(C)CC2=NOS(=O)(=O)c1ccc(C)cc1
XC50: 208 nM

CCNCc1ccc(-c2cccc(-c3nc4ccccc4[nH]3)c2)cc1
XC50: 550 nM

CCOc1ccc(-c2nc3cc(-c4nc5cc(N6CCN(C)CC6)ccc5[nH]4)ccc3[nH]2)cc1
XC50: 108 nM

COc1cccc(Nc2nc(C)cc(NC3CCN(Cc4ccccc4)CC3)n2)c1
XC50: 693 nM

CC(Cc1ccc(CN2CCN(Cc3ccccc3)CC2)cc1)NCC(O)c1cccc(C(F)(F)F)c1 (stereo unspecified)
XC50: 893 nM

Cc1ccccc1CNC(=O)Nc1cccc(-c2csc(NC(=N)N)n2)c1
XC50: 700 nM

Cc1cc(N(C)C)nc(Nc2ccc(NC(=O)c3ccccc3C)cc2)n1
XC50: 1130 nM

O=C(NCCCCN1CCN(c2cccc3ccccc23)CC1)c1ccc(NC(=O)c2ccc(Cl)cc2)cc1
XC50: 358 nM

Cc1cc(N)nc2ccc(CNCCc3ccccc3Br)cc12
XC50: 120 nM

CSCCCN1CCC(O)(c2ccc3oc(C(=O)Nc4ccc5sc(C)nc5c4)cc3c2)CC1
XC50: 1070 nM

O=C(N[C@H]1CCN(Cc2ccc(OCCN3CCNCC3)c3ccccc23)C1)c1ccc(Cl)c(Cl)c1
XC50: 748 nM

COc1ccccc1NC(=O)OC(COc1ccc(N)cc1)CN1CC=C(c2ccccc2)CC1 (stereo unspecified)
XC50: 1040 nM

CCc1c(C(=O)NC2CCC(N3CCC(c4ccccc4OC)CC3)CC2)[nH]c2ccc(OC)cc12 (stereo unspecified)
XC50: 1110 nM

CC(C)(CNCc1ccc(Cl)c(Cl)c1)c1nc(-c2ccc(Cl)c(O)c2)c(-c2ccncc2)[nH]1
XC50: 757 nM

CNc1ccc(CNCc2ccc(-c3ccc(-c4nc5cc(C(F)(F)F)ccc5[nH]4)s3)cc2)cc1
XC50: 177 nM

COc1ccc(/C=C/C(=O)NCCCCCN2CCC(c3c[nH]c4ccccc34)CC2)cc1O
XC50: 957 nM

COc1ccc(OCCON)cc1
XC50: 201 nM

CN1CC[C@@H](Oc2cc(Nc3nc(-c4ccc(C#N)cc4)cs3)ccc2Cl)C1
XC50: 821 nM

C=CCN(C(=O)c1ccc(Cl)c([N+](=O)[O-])c1)c1nc(-c2ccccc2)cs1
XC50: 398 nM

COc1cccc(N(CCCN2C(=O)c3cccc4cccc(c34)C2=O)C(=O)c2ccccc2C)c1
XC50: 795 nM

Fc1ccc2[nH]cc(CCNCc3ccc(-c4cccc(-c5nc6ccccc6[nH]5)c4)cc3)c2c1
XC50: 174 nM

CC(=O)Nc1ccc([N+](=O)[O-])c2c(Br)cccc12
XC50: 636 nM

O=C(COc1ccccc1Cl)N1CCc2cc3nccc(N4CCN5CCC[C@H]5C4)c3cc21
XC50: 744 nM

CCOC(C(=O)OCC1CCCN1C(C)C)(c1ccccc1)c1ccccc1 (stereo unspecified)
XC50: 763 nM

O=C(Nc1ccccc1O)C1CCN(c2ncnc3cc(-c4ccc(F)cc4)sc23)CC1
XC50: 874 nM

O=C(Nc1ccc(-c2nc3ccccc3[nH]2)cc1)c1ccc(S(=O)(=O)N2CCCCCC2)cc1
XC50: 411 nM

O=C(Nc1cccc(-c2csc(-c3ccccc3)n2)c1)c1cccs1
XC50: 800 nM

COc1ccc2ccccc2c1C=NN=c1cc[nH]c2ccc(F)cc12
XC50: 1110 nM

O=C(C=Cc1ccc(Cl)c(Cl)c1)NCCCCCN1CCCC(CCCNS(=O)(=O)c2cccc(C(F)(F)F)c2)C1 (stereo unspecified)
XC50: 962 nM

COc1ccc2c(c1)CCCC2C(C)NCC(O)c1cccc(C(F)(F)F)c1 (stereo unspecified)
XC50: 345 nM

COc1cc(NC(=O)C(c2ccc(Cl)cc2)C(C)C)cc(OC)c1 (stereo unspecified)
XC50: 723 nM

CC[C@H]1CN2CC[C@H]1C[C@H]2[C@H](O)c1cc(N2CCC3CCCCC3C2)nc2ccc(OC)cc12 (stereo partly specified)
XC50: 170 nM

CC(=O)Nc1ccc(NC(=O)c2cc(-c3cc(Cl)ccc3O)n[nH]2)cc1
XC50: 176 nM

CCCCCCn1c(Sc2ccc(C#N)c([N+](=O)[O-])c2)nnc1-c1cc(OC)cc(OC)c1
XC50: 771 nM

COc1cc(Nc2nccc(-c3c(-c4cccc(NC(=O)c5c(F)cccc5F)c4)nn4ccccc34)n2)cc(OC)c1OC
XC50: 77.3 nM

CC(=O)Nc1ccc(C(=O)Nc2cccc(-c3ccc(-c4nc5cc(F)ccc5[nH]4)s3)c2)cn1
XC50: 233 nM

O=[N+]([O-])c1cccc(-c2ccc(C=NNc3cc(N4CCCC4)nc(N4CCCC4)n3)o2)c1
XC50: 713 nM

COCCNCc1cccc(-c2ccc(CN(C(=O)Nc3ccccc3)C3CCN(Cc4ccccc4)CC3)cc2)c1
XC50: 773 nM

CCCCCCCNc1cc(C)nc2ccc(OC)cc12
XC50: 671 nM

CNC(=O)NC1=NC(C)(C)N(OCc2ccc(Cl)c(Cl)c2)C(NC(=O)NC)=N1
XC50: 601 nM

Cc1cc(C(=O)CN2C(=O)NC3(CCCc4ccccc43)C2=O)c(C)n1Cc1ccco1 (stereo unspecified)
XC50: 1100 nM
